{
  "source": "patent US11654140B2",
  "about": "“Treatment of ocular inflammatory diseases using laquinimod” (Active Biotech AB, priority 2012, dated 2023)",
  "key": {"[1]": {"tested_on": "S-antigen-induced experimental autoimmune uveitis (EAU) in rats", "assay": "EAU model in rats, histological ocular evaluation (Example 1)", "assay_type": "in vivo, rat", "conditions": "Day 16; for Histological ocular evaluation of both eyes, mean histologic grade: 10 μl once daily both eyes from Day 7, scale 0-7", "method": "A 1% (10 mg/ml) and a 5% (50 mg/ml) solution of laquinimod sodium were prepared in sterile water. Dissolution of laquinimod powder was achieved by shaking, stirring, or low-speed vortex. The solutions were stored for up to 2 weeks at 2-8° C. and up to 24 hours at room temperature. Laquinimod solutions were prepared under light protection and were protected from light for the duration of the experiment. […] One 100 mg/4 ml in olive oil dose was prepared every 2 days and stored at room temperature.\nThirty two female albino Lewis rats were randomly divided into four (4) groups of eight (8) rats. Ocular inflammation was induced at Day 1 by injection of 100 μl of human S-antigen (100 μg) in Freud's complete adjuvant (4 mg/ml) into the footpad of each rat, and an intraperitoneal injection of 1 μg/100 μl pertussis toxin.\nBeginning on Day 7 until the end of the study, each animal group was treated with a test solution in both eyes as shown in Table 1:\nImmediately after euthanasia (i.e., at Day 16), both eyeballs of all rats of each group were enucleated and prepared for histological examination. They were fixed in Bouin-Hollande solution, dehydrated, and embedded in paraffin wax. They were then cut into eight sections, approximate five to seven micrometers thick and stained with Trichome of Masson."}, "[2]": {"tested_on": "subject suffering from uveitis", "assay": "Laquinimod for treating uveitis (Example 4)", "assay_type": "in vivo", "conditions": "laquinimod composition administered to the eye, once daily", "method": "In the examples 4-9 below, the administration of the composition is once daily. The administration can be repeated daily for a period of one, two, three or four days, up to 14 days, or longer as necessary. A laquinimod composition as described herein is administered to the eye of a subject suffering from uveitis. The administration of the composition is effective to treat the subject suffering from uveitis. The administration of the composition is also effective to reduce intraocular inflammation in the subject. The administration of the composition is also effective to reduce retina tissue destruction in the subject."}, "[3]": {"tested_on": "subject suffering from an inflammation of the orbital tissue, the lacrimal apparatus, the eyelid, the cornea, the retina or the optic pathway", "assay": "Laquinimod for treating inflammation in the eye (Example 7)", "assay_type": "in vivo", "conditions": "laquinimod composition, once daily", "method": "(§1) In the examples 4-9 below, the administration of the composition is once daily. The administration can be repeated daily for a period of one, two, three or four days, up to 14 days, or longer as necessary.\nA laquinimod composition as described herein is administered to a subject suffering from an inflammation of the orbital tissue, the lacrimal apparatus, the eyelid, the cornea, the retina or the optic pathway in the eye. The administration of the composition is effective to treat the subject suffering from the inflammation. The administration of the composition is also effective to reduce intraocular inflammation in the subject."}, "[4]": {"tested_on": "subject suffering from allergic conjunctivitis", "assay": "Laquinimod for treating allergic conjunctivitis (Example 8)", "assay_type": "in vivo", "conditions": "0.2 mg-0.5 mg laquinimod/day", "method": "as §1\nA laquinimod composition as described herein is administered to a subject suffering from allergic conjunctivitis at 0.2 mg-0.5 mg laquinimod/day. The administration of the composition is effective to treat the subject suffering from allergic conjunctivitis. The administration of the composition is also effective to reduce intraocular inflammation in the subject. The administration of the composition is also effective to inhibit late ocular anaphylaxis in the subject. The administration of the composition is also effective reduce eosinophil infiltration into the conjunctiva of the subject."}, "[5]": {"tested_on": "subject suffering from an OID", "assay": "Laquinimod for treating OID (Example 9)", "assay_type": "in vivo", "conditions": "laquinimod composition, once daily", "method": "as §1\nA laquinimod composition as described herein is administered to a subject suffering from an OID. The administration of the composition is effective to treat the subject suffering from the OID. The administration of the composition is also effective to reduce intraocular inflammation in the subject."}},
  "data": [
    {"smiles": "CCN(C(=O)c1c(O)c2c(Cl)cccc2n(C)c1=O)c1ccccc1", "note": "[Laquinimod, laquinimod]", "values": [
      {"measurement": "Histological ocular evaluation of both eyes, mean histologic grade", "setting": "[1]; 1% Laquinimod", "result": 1.2},
      {"measurement": "Histological ocular evaluation of both eyes, mean histologic grade", "setting": "[1]; 1% Laquinimod, listed as laquinimod", "result": "1.2±2.2"},
      {"measurement": "eyes showing significant destruction of the retina associated with infiltration of inflammatory cells", "setting": "[1]; 1% laquinimod once per day", "result": "four eyes out of sixteen"},
      {"measurement": "Histological ocular evaluation of both eyes, mean histologic grade", "setting": "[1]; 5% Laquinimod", "result": 0.7},
      {"measurement": "Histological ocular evaluation of both eyes, mean histologic grade", "setting": "[1]; 5% Laquinimod, listed as laquinimod", "result": "0.7±1.9"},
      {"measurement": "eyes showing destruction of the retina associated with infiltration of inflammatory cells", "setting": "[1]; 5% laquinimod once per day", "result": "two eyes (from two different animals) out of sixteen"},
      {"measurement": "treat the subject suffering from uveitis", "setting": "[2]", "result": "effective"},
      {"measurement": "reduce intraocular inflammation in the subject", "setting": "[2]; uveitis", "result": "effective"},
      {"measurement": "reduce retina tissue destruction in the subject", "setting": "[2]; uveitis", "result": "effective"},
      {"measurement": "reduce intraocular inflammation in the subject", "setting": "[3]; inflammation in the eye", "result": "effective"},
      {"measurement": "treat the subject suffering from the inflammation", "setting": "[3]; inflammation of orbital tissue, lacrimal apparatus, eyelid, cornea, retina or optic pathway", "result": "effective"},
      {"measurement": "treat the subject suffering from allergic conjunctivitis", "setting": "[4]", "result": "effective"},
      {"measurement": "inhibit late ocular anaphylaxis in the subject", "setting": "[4]; allergic conjunctivitis", "result": "effective"},
      {"measurement": "reduce eosinophil infiltration into the conjunctiva of the subject", "setting": "[4]; allergic conjunctivitis", "result": "effective"},
      {"measurement": "reduce intraocular inflammation in the subject", "setting": "[4]; allergic conjunctivitis", "result": "effective"},
      {"measurement": "treat the subject suffering from the OID", "setting": "[5]", "result": "effective"},
      {"measurement": "reduce intraocular inflammation in the subject", "setting": "[5]; OID", "result": "effective"}
    ]}
  ]
}
